From patent US9956171B2, “Liquid inhalation formulation comprising RPL554” (VERONA PHARMA PLC, priority 2014, dated 2018)

Test: Particle size distribution of micronized RPL554 by laser diffraction (Malvern Spraytec)
Assay type: physicochemical
Text: The technique used to measure the Dv50 value is typically laser diffraction. For instance, the RPL554 particles typically have a particle size distribution with a Dv50 value of from about 0.2 μm to about 5 μm as measured by laser diffraction. The particle size distribution analysis can be performed by laser diffraction using the Malvern Spraytec in conjunction with a wet dispersion cell. Typically, the instrument parameters for the Malvern Spraytec are as follows: • particle—standard opaque particle; • refractive index Particle—1.50; • refractive index (imaginary)—0.50; • density of particle—1.00; • refractive index of dispersant—1.33; • controller unit—1000 RPM; • measurement type—timed; • initial sampling time—30 s; • obscuration—20%-30%; • dispersant—1% Polysorbate 20 in deionised water.
The particle size distribution of a sample of micronized RPL554 suitable for use in nebulized formulations was evaluated using laser diffraction. The particle size distribution analysis was performed by laser diffraction using the Malvern Spraytec in conjunction with a wet dispersion cell.

With COc1cc2c(cc1OC)-c1c/c(=N\c3c(C)cc(C)cc3C)n(CCNC(N)=O)c(=O)n1CC2 [RPL554, 9,10-Dimethoxy-2-(2,4,6-trimethylphenylimino)-3-(N-carbamoyl-2-aminoethyl)-3,4,6,7-tetrahydro-2H-pyrimido[6,1-a]isoquinolin-4-one] as the molecule, how does the Dv10 read?
The Dv10 was 0.69 μm.

And the Dv50?
The Dv50 was 1.35 μm.

And the Dv90?
The Dv90 was 2.5 μm.
